Test system: HIF-1α-mediated HRE transcriptional activity
Assay: Assay for inhibition of HIF-1α-mediated transcriptional activity (HRE reporter assay)
Type: cell-based, human
Conditions: HCT116 cells, 12 hours under hypoxia (1% O2)
Protocol: <Experiment 1> Assay for Inhibition of HIF-1α-Mediated Transcriptional Activity (HRE Reporter Assay)
The compounds can be developed as anti-cancer drugs, because the compounds inhibiting HIF-1α-mediated HRE transcriptional activity induced by hypoxia can suppress the growth and metastasis of cancer.
Inhibitory effects of the compounds according to the present invention, from Formula I-1 to I-42, on HIF-1α-mediated transcriptional activity were evaluated using this assay. pGL3-HRE-luciferase vector was constructed as follows. Six copies of HRE (Hypoxia Responsive Element, 5′-ACGTG-3′) from human VEGF genes were inserted into the multi-cloning site of a pGL3-basic vector (Promega). A luciferase gene was used as a reporter gene.
In detail, HCT116(ATCC #CCL-247) human colon cancer cells were seeded in 48-well cell culture plates. The cells were co-transfected with 25 ng of pGL3-HRE-luciferase and 2.5 ng of Renila control vectors using Polyfect reagent next day. After 24 hours of incubation, the cells were incubated for an additional 4 hours with replaced cell culture media. The cells were treated with various concentrations (0, 1, 3, 5, 10, and 20 μM) of the above compounds according to the present invention and incubated for 12 hours under hypoxia (1% O2, 94% N2, and 5% CO2). The luciferase assay was performed using a dual-luciferase reporter assay system (Promega). After cell lysate preparation with RIPA buffer, induced luciferase activity under hypoxic conditions was determined to examine inhibitory effects of the compounds according to the present invention, from Formula I-1 to I-42, on HIF-1α-mediated transcriptional activity.

With `CN1CCN(C(=O)COc2ccc(C34CC5CC(CC(C5)C3)C4)cc2)CC1.Cl` [Compound I-4, 4-(2-(4-(Adamantan-1-yl)phenoxy)acetyl)-1-methylpiperazin-1-ium chloride] the “Inhibitory activity against HIF-1α (10 μM)” value was “A (A(76˜100%))”.

Same assay, conditions: Homo sapiens, HCT-116, HCT116 cells, 12 hours under hypoxia (1% O2), read-out: Inhibitory activity against HIF-1α (10 μM)

Compared with `CN(C)C(=O)COc1ccc(C23CC4CC(CC(C4)C2)C3)cc1` [Compound I-1, 2-(4-(Adamantan-1-yl)phenoxy)-N,N-dimethylacetamide], `O=C(COc1ccc(C23CC4CC(CC(C4)C2)C3)cc1)NC1CC1` [Compound I-2, 2-(4-(Adamantan-1-yl)phenoxy)-N-cyclopropylacetamide] is higher in inhibition at 10 µM: 51 to 75% for the first, 76 to 100% for the second.

`Cc1cc(C23CC4CC(CC(C4)C2)C3)ccc1OCC(=O)N1CCN(C)CC1` [Compound I-5, 2-(4-(Adamantan-1-yl)-2-methylphenoxy)-1-(4-methylpiperazin-1-yl)ethanone] and `Cc1cc(C23CC4CC(CC(C4)C2)C3)ccc1OCCC(=O)N1CCN(C)CC1` [Compound I-11, 3-(4-(Adamantan-1-yl)-2-methylphenoxy)-1-(4-methylpiperazin-1-yl)propan-1-one] fall in the same range of inhibition at 10 µM: 76 to 100% for the first, 76 to 100% for the second.

`Cc1cc(C23CC4CC(CC(C4)C2)C3)ccc1OCC(=O)NCCN(C)C` [Compound I-7, 2-(4-(Adamantan-1-yl)-2-methylphenoxy)-N-(2-(dimethylamino)ethyl)acetamide] and `Cc1cc(C23CC4CC(CC(C4)C2)C3)ccc1OCCC(=O)NCCN(C)C` [Compound I-13, 3-(4-(Adamantan-1-yl)-2-methylphenoxy)-N-(2-(dimethylamino)ethyl)propanamide] fall in the same range of inhibition at 10 µM: 51 to 75% for the first, 51 to 75% for the second.

First: O=C(CCOc1ccc(C23CC4CC(CC(C4)C2)C3)cc1)N1CCOCC1 [Compound I-9, 3-(4-(Adamantan-1-yl)phenoxy)-1-morpholinopropan-1-one]
Second: C[N+]1(C)CCN(C(=O)CCOc2ccc(C34CC5CC(CC(C5)C3)C4)cc2)CC1 [Compound I-18, 4-(3-(4-(Adamantan-1-yl)phenoxy)propanoyl)-1,1-dimethylpiperazin-1-ium iodide]
The inhibition at 10 µM of the first is higher: 76 to 100% for the first, 26 to 50% for the second.

`CN(C)CCNC(=O)CCOc1ccc(C23CC4CC(CC(C4)C2)C3)cc1` [Compound I-10, 3-(4-(Adamantan-1-yl)phenoxy)-N-(2-(dimethylamino)ethyl)propanamide] and `Cc1cc(C23CC4CC(CC(C4)C2)C3)ccc1OCCC(=O)NCC[N+](C)(C)C` [Compound I-21, 2-(3-(4-(Adamantan-1-yl)-2-methylphenoxy)propanamido)-N,N,N-trimethylethanaminium iodide] fall in the same range of inhibition at 10 µM: 26 to 50% for the first, 26 to 50% for the second.

`Cc1cc(C23CC4CC(CC(C4)C2)C3)ccc1OCCC(=O)N1CCOCC1` [Compound I-12, 3-(4-(Adamantan-1-yl)-2-methylphenoxy)-1-morpholinopropan-1-one] and `Cc1cc(C23CC4CC(CC(C4)C2)C3)ccc1OCCC(=O)N1CC[N+](C)(C)CC1` [Compound I-20, 4-(3-(4-(Adamantan-1-yl)-2-methylphenoxy)propanoyl)-1,1-dimethylpiperazin-1-ium iodide] fall in the same range of inhibition at 10 µM: 76 to 100% for the first, 76 to 100% for the second.

First: CN1CCN(C(=O)CCCOc2ccc(C34CC5CC(CC(C5)C3)C4)cc2)CC1 [Compound I-14, 4-(4-(Adamantan-1-yl)phenoxy)-1-(4-methylpiperazin-1-yl)butan-1-one]
Second: O=C(COc1ccc(C23CC4CC(CC(C4)C2)C3)cc1)N1CCN(CCO)CC1 [Compound I-35, 2-(4-(Adamantan-1-yl)phenoxy)-1-(4-(2-hydroxyethyl)piperazin-1-yl)ethanone]
The inhibition at 10 µM of the first is higher: 51 to 75% for the first, 26 to 50% for the second.

First: C[N+]1(C)CCN(C(=O)COc2ccc(C34CC5CC(CC(C5)C3)C4)cc2)CC1 [Compound I-15, 4-(2-(4-(Adamantan-1-yl)phenoxy)acetyl)-1,1-dimethylpiperazine-1-ium iodide]
Second: O=C(COc1ccc(C23CC4CC(CC(C4)C2)C3)cc1)N1CCNCC1 [Compound I-30, 2-(4-(Adamantan-1-yl)phenoxy)-1-(piperazin-1-yl)ethanone]
The inhibition at 10 µM of the first is lower: 26 to 50% for the first, 76 to 100% for the second.

First: Cc1cc(C23CC4CC(CC(C4)C2)C3)ccc1OCC(=O)NCC[N+](C)(C)C [Compound I-17, 2-(2-(4-(Adamantan-1-yl)-2-methylphenoxy)acetamido)-N,N,N-trimethylethanaminium iodide]
Second: O=C(COc1ccc(C23CC4CC(CC(C4)C2)C3)cc1)NCc1ccco1 [Compound I-26, 2-(4-(Adamantan-1-yl)phenoxy)-N-(furan-2-ylmethyl)acetamide]
The inhibition at 10 µM of the first is lower: 26 to 50% for the first, 76 to 100% for the second.

`CN1CCN(C(=O)COc2ccc(C34CC5CC(CC(C5)C3)C4)cc2F)CC1` [Compound I-25, 2-(4-(Adamantan-1-yl)-2-fluorophenoxy)-1-(4-methylpiperazin-1-yl)ethanone] and `CN1CCN(C(=O)COc2ccc(C34CC5CC(CC(C5)C3)C4)cc2Cl)CC1` [Compound I-42, 2-(4-(Adamantan-1-yl)-2-chlorophenoxy)-1-(4-methylpiperazin-1-yl)ethanone] fall in the same range of inhibition at 10 µM: 51 to 75% for the first, 51 to 75% for the second.

Compared with `O=C(COc1ccc(C23CC4CC(CC(C4)C2)C3)cc1)N1CCN(Cc2ccc(C(F)(F)F)cc2)CC1` [Compound I-27, 2-(4-(Adamantan-1-yl)phenoxy)-1-(4-(4-(trifluoromethyl)benzyl)piperazin-1-yl)ethanone], `C#CCN1CCN(C(=O)COc2ccc(C34CC5CC(CC(C5)C3)C4)cc2)CC1` [Compound I-36, 2-(4-(Adamantan-1-yl)phenoxy)-1-(4-(prop-2-yn-1-yl)piperazin-1-yl)ethanone] is lower in inhibition at 10 µM: 76 to 100% for the first, 51 to 75% for the second.

`CC(C)N1CCN(C(=O)COc2ccc(C34CC5CC(CC(C5)C3)C4)cc2)CC1` [Compound I-28, 2-(4-(Adamantan-1-yl)phenoxy)-1-(4-isopropylpiperazin-1-yl)ethanone] and `CC(C)(C)OC(=O)N1CCN(C(=O)COc2ccc(C34CC5CC(CC(C5)C3)C4)cc2)CC1` [Compound I-29, tert-Butyl 4-(2-(4-(adamantan-1-yl)phenoxy)acetyl)piperazine-1-carboxylate] fall in the same range of inhibition at 10 µM: 51 to 75% for the first, 51 to 75% for the second.

`C[C@H]1CN(C(=O)OC(C)(C)C)CCN1C(=O)COc1ccc(C23CC4CC(CC(C4)C2)C3)cc1` [Compound I-31, (S)-tert-Butyl 4-(2-(4-(adamantan-1-yl)phenoxy)acetyl)-3-methylpiperazine-1-carboxylate] and `C[C@@H]1CN(C(=O)OC(C)(C)C)CCN1C(=O)COc1ccc(C23CC4CC(CC(C4)C2)C3)cc1` [Compound I-33, (R)-tert-Butyl 4-(2-(4-(Adamantan-1-yl)phenoxy)acetyl)-3-methylpiperazine-1-carboxylate] fall in the same range of inhibition at 10 µM: 76 to 100% for the first, 76 to 100% for the second.

First: C[C@H]1CNCCN1C(=O)COc1ccc(C23CC4CC(CC(C4)C2)C3)cc1 [Compound I-32, 2-(4-(Adamantan-1-yl)phenoxy)-1-((S)-2-methylpiperazin-1-yl)ethanone]
Second: C[C@@H]1CNCCN1C(=O)COc1ccc(C23CC4CC(CC(C4)C2)C3)cc1 [Compound I-34, 2-(4-(Adamantan-1-yl)phenoxy)-1-((R)-2-methylpiperazin-1-yl)ethanone]
The inhibition at 10 µM of the first is higher: 76 to 100% for the first, 51 to 75% for the second.

First: CN1CCN(c2ccc(NC(=O)COc3ccc(C45CC6CC(CC(C6)C4)C5)cc3)cc2)CC1 [Compound I-37, 2-(4-(Adamantan-1-yl)phenoxy)-N-(4-(4-methylpiperazin-1-yl)phenyl)acetamide]
Second: O=C(COc1ccc(C23CC4CC(CC(C4)C2)C3)cc1)Nc1ccc(N2CCS(=O)(=O)CC2)cc1 [Compound I-38, 2-(4-(Adamantan-1-yl)phenoxy)-N-(4-(1,1-dioxidothiomorpholino)phenyl)acetamide]
The inhibition at 10 µM of the first is lower: 1 to 25% for the first, 51 to 75% for the second.

Compared with `O=C(COc1ccc(C23CC4CC(CC(C4)C2)C3)cc1)N1CCn2c(nnc2C(F)(F)F)C1` [Compound I-39, 2-(4-(Adamantan-1-yl)phenoxy)-1-(3-(trifluoromethyl)-5,6-dihydro-[1,2,4]triazolo[4,3-a]pyrazin-7(8H)-yl)ethanone], `O=C(COc1ccc(C23CC4CC(CC(C4)C2)C3)cc1)NC12CC3CC(CC(O)(C3)C1)C2` [Compound I-41, 2-(4-(Adamantan-1-yl)phenoxy)-N-(3-hydroxyadamantan-1-yl)acetamide] is higher in inhibition at 10 µM: 26 to 50% for the first, 76 to 100% for the second.

In the case of `O=C(COc1ccc(C23CC4CC(CC(C4)C2)C3)cc1)NC12CC3CC(CC(C3)C1)C2` [Compound I-40, N-(adamantan-1-yl)-2-(4-(adamantan-1-yl)phenoxy)acetamide], the inhibition at 10 µM is reported as 1 to 25%.
